Target: kynurenine 3-monooxygenase (KMO; Recombinant human Kynurenine 3-hydroxylase) (Homo sapiens, UniProt O15229)
Experiment: SPR (Biacore T200, KMO immobilized on CM5 chip by amine coupling, […] binding model)

kynurenine 3-monooxygenase (KMO; Recombinant human Kynurenine 3-hydroxylase), sequence (O15229 whole entry): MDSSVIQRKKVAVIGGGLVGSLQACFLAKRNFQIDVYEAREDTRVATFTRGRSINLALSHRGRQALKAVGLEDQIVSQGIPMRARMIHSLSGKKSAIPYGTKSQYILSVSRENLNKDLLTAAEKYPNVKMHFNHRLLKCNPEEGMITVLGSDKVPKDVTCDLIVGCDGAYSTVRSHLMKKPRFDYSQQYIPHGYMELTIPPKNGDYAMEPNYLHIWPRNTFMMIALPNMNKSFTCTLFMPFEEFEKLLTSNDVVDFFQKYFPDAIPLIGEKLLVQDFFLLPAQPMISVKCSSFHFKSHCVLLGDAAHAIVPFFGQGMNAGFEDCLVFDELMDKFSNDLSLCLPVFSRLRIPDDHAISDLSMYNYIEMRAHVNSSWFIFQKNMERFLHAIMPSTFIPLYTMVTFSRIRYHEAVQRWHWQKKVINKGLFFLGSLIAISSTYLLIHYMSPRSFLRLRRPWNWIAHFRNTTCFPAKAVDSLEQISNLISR

CC(C)=CCC[C@](C)(O[C@@H]1O[C@H](CO[C@@H]2OC[C@@H](O)[C@H](O)[C@H]2O)[C@@H](O)[C@H](O)[C@H]1O)[C@H]1CC[C@]2(C)[C@@H]1[C@H](O)C[C@@H]1[C@@]3(C)CC[C@H](O[C@@H]4O[C@H](CO)[C@@H](O)[C@H](O)[C@H]4O[C@@H]4O[C@H](CO)[C@@H](O)[C@H](O)[C@H]4O)C(C)(C)[C@@H]3CC[C@]12C [Ginsenoside Rb3]
Kd: 1960 nM
